From patent US10058562B2, “Methods of treatment of diseases” (Ampio Pharmaceuticals, Inc., priority 2012, dated 2018)
Where two headings read alike, the source gives them in different places. Each block holds one compound with its values, some of them ahead of it.

How the values were obtained:
[1] = test system: patients with diabetic macular edema (DME); type: in vivo, human
Text: Included were patients with DME and a central subfield retinal thickness of 300 μm or greater. A total of 34 patients constituted the safety set population. The efficacy evaluable population (n=23) was composed of patients from the safety set who completed 80% or greater of study medications at 4 weeks of treatment. The primary endpoint was change in central subfield retinal thickness from baseline to 12 weeks of treatment, and the secondary endpoints were change from baseline in retinal volume and Early Treatment Diabetic Retinopathy Study (ETDRS) best corrected visual acuity (BCVA) at week 12 of treatment. […] All treatments were administered orally twice a day.

[2] = test system: Primary human umbilical vein endothelial cells (HUVECs); assay: HUVEC cell proliferation (Celltiter 96 AQueous One); type: cell-based
Procedure: Primary human umbilical vein endothelial cells (HUVECs) and EGM-2 growth medium were obtained from Cambrex (Walkersville, Md.). The cells were passaged in medium supplemented with 2% fetal calf serum (FCS) in tissue culture flasks at 37° C. and 5% CO2. Subculturing was performed using trypsin when 60-80% confluence was obtained as specified by the supplier.
Cryopreserved ampoules of passage 2 HUVECs were thawed and plated in 96 well tissue culture plates at 5,000 cells/cm^2. […] . In short, medium was aspirated from each well and the cells were washed with 200 μl […] (HBSS) from Cambrex warmed to 37° C. 100 μl diluted celltiter solution (15 μl stock+85 μl EGM-2 containing 0.1% FCS) were added to each well and incubated for an additional 4 hours. Optical density was determined by microplate reader using a 530 nm filter after blank subtraction and data presented as OD±standard deviation. The final concentration of ethanol in the wells was less then 0.2% and had no effect on cell proliferation or viability.
All data are presented as representative experiments done in triplicate. […] P<0.05 was considered statistically significant.

[3] = test system: human retinal endothelial cells; assay: Actin stress fiber formation, VEGF (Example 10); type: cell-based; conditions: for change of VEGF stress fiber pattern: 30 minutes before VEGF 25 ng/ml
Procedure: . […] To counter-stain for nuclei, 100 μl of a 3 μM DAPI (4,6-diamidino-2-phenylindole, dilactate (Invitrogen)) solution was added to each well. After 5 minutes, the cells were washed two times with 100 μl PBS.

HUVECs = assay: HUVEC tube formation assay; conditions: 18 hours
[4] = test system: human retinal endothelial cells; assay: ECIS resistance (Example 14); conditions: for persistence of ECIS increase: danazol 1.0 μM, S1P 1 μM, alone or in combination
Procedure: (§1) Electrical resistance was measured using the electric cell-substrate impedance sensing (ECIS) system (ECISZθ, obtained from Applied Biophysics) with 8-well multiple electrode plates (8W10E). […] The fibronectin solution was removed, and 400 μl of EGM-2 culture medium (Lonza) was added to each well. The plates were connected to the ECISZθ system and were electrically stabilized. The EGM-2 medium was aspirated and replaced with 200 μl of EGM-2 culture medium containing 100,000 cells per well. […] The EGM-2 medium was aspirated and replaced with 400 μl of fresh EGM-2 culture medium per well. […] Concentrated solutions of the test compounds in HBSS were prepared and placed in the incubator to equilibrate. […] ECIS (resistance) was monitored for 90 hours.

[5] = test system: human renal glomerular microvascular endothelial cells; assay: ECIS resistance (Example 14); conditions: danazol 1 μM alone
Procedure: as §1

[6] = test system: human renal glomerular microvascular endothelial cells; assay: ECIS resistance (Example 15); conditions: 1 μM
Procedure: Electrical resistance was measured using the electric cell-substrate impedance sensing (ECIS) system (ECISZθ, obtained from Applied Biophysics) with 8-well multiple electrode plates (8W10E). […] The fibronectin solution was removed, and 200 μl of EGM-2 culture medium (Lonza) was added to each well. The plates were connected to the ECISZθ system and were electrically stabilized. The EGM-2 medium was aspirated and replaced with 200 μl of EGM-2 culture medium containing 40,000 passage 6 cells per well. […] The EGM-2 medium was aspirated and replaced with 200 μl of fresh EGM-2 culture medium per well. […] The EGM-2 medium was aspirated and replaced with 200 μl of fresh EGM-2 culture medium without dexamethasone per well. […] Finally, the EGM-2 medium was aspirated and replaced with 200 μl of fresh EGM-2 culture medium without dexamethasone per well. […] Concentrated solutions of the test compounds in HBSS were prepared and placed in the incubator to equilibrate. […] ECIS (resistance) was monitored for 90 hours.

[7] = test system: human renal glomerular microvascular endothelial cells; assay: Actin stress fiber formation (Example 13); conditions: for F-actin staining, danazol alone: 1 μM; for F-actin staining, agent alone: TNFα 1 ng/ml or S1P 1 μM alone, over the time course
[8] = test system: human retinal endothelial cells; assay: Actin stress fiber formation (Example 13); conditions: for F-actin staining, danazol alone: 1 μM; for F-actin staining, agent alone: TNFα 1 ng/ml or S1P 1 μM alone, over the time course
[9] = test system: human retinal endothelial cells; assay: TER of endothelial cell monolayers (Example 6); conditions: 1.0 μM
Procedure: (§2) Assays were also performed in the same manner using passage 8 human brain endothelial cells and passage 8 human umbilical vein endothelial cells.
(§3) An initial TER measurement was taken for each insert using EVOM^2 voltohmmeter connected to an STX100 electrode (both from World Precision Instruments). […] All data are presented as TER measurements/cm^2 of insert with TER of blank inserts subtracted.

[10] = test system: human brain endothelial cells; assay: TER of endothelial cell monolayers (Example 6); conditions: 1.0 μM
Procedure: as §2, §3

[11] = test system: human umbilical vein endothelial cells; assay: TER of endothelial cell monolayers (Example 6); conditions: 1.0 μM
Procedure: as §2, §3

[12] = test system: human retinal endothelial cells; assay: Actin stress fiber formation, TNFα (Example 9); conditions: 30 minutes
Procedure: Then, the medium was removed and replaced with 200 μl of IMDM medium supplemented with 0.1% fetal bovine serum (all from Lonza), and the cells were cultured under these growth factor and serum starved conditions for one hour to suppress actin polymerization. […] Immediately following addition of these compounds, TNFα (final concentration of 50 ng/ml) was added. […] All wells were then washed two times with 100 μl PBS. The cells were permeabilized using a 0.1% Triton X-100 in PBS for 5 minutes. All wells were then washed two times with 100 μl PBS, and 50 μl of a 1:40 dilution of rhodamine-phalloidin (Invitrogen) in PBS was added to the cells to stain for F-actin and left on the cells for 20 minutes at room temperature. All wells were then washed two times with 100 μl PBS.

[13] = test system: Retinal endothelial cells; assay: F-actin (phalloidin) staining of endothelial cells; conditions: barrier-enhancing concentrations
Text: Retinal endothelial cells stained with rhodamine conjugated phalloidin.

endothelial cells = assay: TEER across endothelial cell monolayers on transwell inserts; conditions: barrier-enhancing concentrations, within minutes of exposure
Text: TEER measured across monolayers of endothelial cells grown on transwell inserts. Higher resistance equals greater barrier integrity.

ocular hypertension ([1]; in vivo): No ocular hypertension was detected
Compound: C#C[C@]1(O)CC[C@H]2[C@@H]3CCC4=Cc5oncc5C[C@]4(C)[C@H]3CC[C@@]21C [Danazol, 17α-pregna-2,4-dien-20-yno[2,3-d]-isoxazol-17β-ol]
effect on retinal thickness versus baseline BMI ([1]; 10 mg dose): became less significant with increasing baseline BMI
effect on retinal thickness versus baseline BMI ([1]; 30 mg danazol dose): became more significant with increasing baseline BMI
patients with a clinically relevant change in OCT after 12 weeks of treatment ([1]; 30 mg danazol, placebo 2 of 7 patients): 6/7
Retinal volume compared with placebo ([1]; 15-mg group, P=0.05): decreased
subjects with a significant decrease in retinal thickness (more than 11%) at 12 weeks ([1]; DME patients, oral 15-mg dose (15 mg twice daily), 6 of 7 patients, placebo 29%): 86%
subjects with BCVA improvement of at least 1 category (ICD-9-CM vision loss) ([1]; all patients treated with danazol, placebo 14%): 47%
treatment-related adverse events (number) ([1]; in vivo): Three
OD (celltiter proliferation assay) ([2]; 24 hours, 10 μM, nil 0.414±0.06): 0.288±0.037
OD (celltiter proliferation assay) ([2]; 24 hours, 100 μM, nil 0.414±0.06): 0.162±0.017
OD (celltiter proliferation assay) ([2]; 48 hours, 1 μM, nil 0.629±0.095): 0.378±0.037
OD (celltiter proliferation assay) ([2]; 48 hours, 10 μM, nil 0.629±0.095): 0.241±0.012
OD (celltiter proliferation assay) ([2]; 48 hours, 100 μM, nil 0.629±0.095): 0.19±0.033
OD (celltiter proliferation assay) ([2]; 72 hours, 0.1 μM, nil 1.113±0.054): 0.798±0.037
OD (celltiter proliferation assay) ([2]; 72 hours, 1 μM, nil 1.113±0.054): 0.484±0.022
OD (celltiter proliferation assay) ([2]; 72 hours, 10 μM, nil 1.113±0.054): 0.229±0.016
OD (celltiter proliferation assay) ([2]; 72 hours, 100 μM, nil 1.113±0.054): 0.156±0.018
change of VEGF stress fiber pattern ([3]; 0.1 μM): made the stress fibers less pronounced and some diffuse staining appeared
change of VEGF stress fiber pattern ([3]; 1.0 μM): showed fewer thick stress fibers, but focal points were seen on contact surfaces
change of VEGF stress fiber pattern ([3]; 10.0 μM): showed strong stress fiber development with focal points
F-actin staining pattern ([3]; 10.0 μM, no VEGF): there was no longer any diffuse staining, and stress fiber development and focal points were seen
effect on tube formation (HUVECs; 1 μM): no effect
effect on tube formation (HUVECs; 10 μM): no effect
start of ECIS increase compared to untreated cells, after treatment ([4]; 1.0 μM): 1.5 to 2.0 h
persistence of ECIS increase [4]: 5 h
period of greatest ECIS increase [5]: 60 to 90 h
persistence of ECIS increase [6]: about 90 hours
start of ECIS increase compared to untreated cells ([6]; medium without dexamethasone): about 3 hours
F-actin staining, danazol alone ([7]; 15 minutes): perinuclear staining
F-actin staining, danazol alone ([7]; 3 hours): diffuse staining throughout the cells with ruffled edges on many of the cells
F-actin staining, danazol alone ([7]; 24 hours): staining similar to untreated controls
F-actin staining, danazol alone ([8]; 15 minutes): perinuclear staining
F-actin staining, danazol alone ([8]; 3 hours): diffuse staining throughout the cells with ruffled edges on many of the cells
F-actin staining, danazol alone ([8]; 24 hours): staining similar to untreated controls
TER ([9]; 0 Hours, per cm^2 of insert, blank subtracted, None 32.3): 21.7
TER ([9]; 24 Hours, None 96.0): 132.3
TER ([9]; 48 Hours, None 144.4): 182.3
TER ([9]; 72 Hours, None 148.0): 217.7
TER ([9]; 144 Hours, None 219.7): 234.8
TER ([10]; 0 Hours, per cm^2 of insert, blank subtracted, None 41.4): 32.3
TER ([10]; 24 Hours, None 115.7): 139.9
TER ([10]; 48 Hours, None 176.3): 188.4
TER ([10]; 72 Hours, None 154.0): 149.5
TER ([10]; 144 Hours, None 151.5): 125.8
TER ([11]; 0 Hours, per cm^2 of insert, blank subtracted, None 82.3): 70.2
TER ([11]; 24 Hours, None 217.2): 246.0
TER ([11]; 48 Hours, None 276.3): 364.1
TER ([11]; 72 Hours, None 226.8): 270.7
TER ([11]; 144 Hours, None 227.3): 286.4
F-actin staining pattern ([12]; 10.0 μM): stress fibers with multiple focal points were detected
stress fiber development with TNFα ([12]; TNFα 50 ng/ml, danazol 0.1 μM or 10 μM, LY294002 10 μM): decreased the number of cells exhibiting stress fiber development with TNFα
F-actin staining ([13]; within minutes of exposure): f-actin cortical ring formation
stress fiber formation upon stimulation ([13]; stimulation with TNF-a or thrombin): counteracted the formation of stress fibers
endothelial barrier function (TEER) (endothelial cells): increases in endothelial barrier function

Compound: CCCCCCCCCCCCC/C=C/[C@@H](O)[C@@H](N)COP(=O)(O)O [S1P, sphingosine-1 phosphate]
start of ECIS increase compared to untreated cells, after treatment ([4]; S1P 1 μM alone): ≤ 0.25 h
persistence of ECIS increase [4]: about 3 hours
F-actin staining, agent alone [7]: showed actin cortical rings
F-actin staining, agent alone [8]: showed actin cortical rings

Compound: TNFα
F-actin staining, agent alone [7]: stress fibers were seen at all times
F-actin staining, agent alone [8]: stress fibers were seen at all times
stress fiber development, stimulus alone ([12]; TNFα 50 ng/ml): led to strong stress fiber development with intensely staining focal points

Compound: VEGF
stress fiber development, stimulus alone ([3]; VEGF 25 ng/ml, 30 minutes): strong stress fiber development
